Source: patent US12441980B2, “Methods for overcoming glutamine deprivation during mammalian cell culture” (priority 2014, dated 2025)

What was measured:
[1] = system: mammalian cells expressing an immunoadhesin (DG44); test: Transition of immunoadhesin-expressing cells from glutamine-containing to glutamine-free media: cell viability and growth rate (trypan blue exclusion, Cedex); assay type: cell-based; conditions: 2.5 μM corticosteroid in glutamine-free media; FIG. 3
From the text: Cell culture methods: Cells were thawed and maintained as in a previous report (Kshirsagar, et al. 2012 Biotechnol Bioeng, Huang, et al. Biotechnology Progress 26(5):1400-1410 (2010)). Basal medium for thaw and passing was the same as in previous reports (Kshirsagar/Huang).

[2] = system: anti alpha-synuclein CHO cells; test: Transition of anti alpha-synuclein CHO cells from glutamine-containing to glutamine-free media: growth rate and viability
Method: Anti alpha-synuclein cells were transferred from glutamine-containing media to glutamine-free media using a 1:5 split ratio on Day 0. Cells were cultured at 36° C., 5% CO2 in 500 mL shake flasks and passaged every 4 days using glutamine-free media+10 mg/L insulin (first bar in FIG. 7A, diamond in FIG. 7B), glutamine-free media+10 mg/L insulin, 100 μM hypoxanthine, 16 μM thymidine (second bar in FIG. 7A, square in FIG. 7B), glutamine-free media+10 mg/L insulin, 500 μM adenosine (third bar in FIG. 7A, triangle in FIG. 7B), or glutamine-free media+10 mg/L insulin, 100 μM adenosine (fourth bar in FIG. 7A, circle in FIG. 7B), using a 1:5 split ratio.
Offline analysis: Samples were taken on most days and analyzed with a variety of equipment. Cell density and viability were measured using the standard technique of trypan blue exclusion using a Cedex (Roche Innovatis AG, Germany). Cell viability and growth rate of the various cultures were measured during the culture time course at specific days post-inoculation.
Anti alpha-synuclein CHO cells were transferred from glutamine-containing media to glutamine-free media using a 1:5 split ratio on Day 0.

Compound	viability drop vs control condition [1]	viability recovery period [1]	toxicity (concentration-dependent response) ([2]; 500 μM supplementation compared to 100 μM supplementation)	viability during transition to glutamine-free media ([2]; HT 100 μM/16 μM, adenosine 500 μM or 100 μM, FIG. 7B)	transitional growth rate ([2]; transition to glutamine-free media, 1:5 split ratio, HT 100 μM/16 μM, adenosine 100 or 500 μM, FIG. 7A)
C[C@]12CCC(=O)C=C1CC[C@@H]1[C@@H]2[C@@H](O)C[C@@]2(C)[C@H]1CC[C@]2(O)C(=O)CO [hydrocortisone]	prevented the sharp viability drop	shortened the viability recovery period			
C[C@]12C=CC(=O)C=C1CC[C@@H]1[C@@H]2[C@@H](O)C[C@@]2(C)[C@H]1CC[C@]2(O)C(=O)CO [prednisolone]	prevented the sharp viability drop	shortened the viability recovery period			
Nc1ncnc2c1ncn2[C@@H]1O[C@H](CO)[C@@H](O)[C@H]1O [adenosine]			slightly toxic	maintains	boosted the transitional growth rate
